From patent US20240207454A1, “NEURO-BEHAVIORAL ASSAY FOR PHYSIOLOGICAL EVALUATION OF WATER-SOLUBLE ANESTHETICS” (Northeastern University, priority 2022, published 2024)
Read-outs that look alike come from different tables or passages of the source.

Key:
[1] = tested on: Apteronotus leptorhynchus; assay: Neuro-behavioral assay: EOD amplitude; format: in vivo
Method: Differential recording of the fish's EOD was performed through a pair of stainless-steel electrodes built into the shelter tube (FIG. 1). During the experiment, the open ends of the tube were closed with a course plastic mesh netting to ensure that the fish remained close to the recording electrodes, thereby yielding high-quality recordings. This restraint is minimally invasive, as, particularly during daytime, the fish remain in shelter tubes with open ends for prolonged periods of time, often for several hours. The recorded EOD signal was amplified and digitized following a protocol established previously. To examine the effect of eugenol on EOD frequency and chirping behavior, the following experiments were conducted using 8 fish (FIG. 11): First, the baseline EOD was recorded in the fish's home tank (50 cm×30 cm×30 cm) for 30 min. Then, for the 5-min treatment session, the shelter tube with the fish was transferred to a smaller (experimental) tank (30 cm×20 cm×20 cm) containing either eugenol dissolved in aquarium water at a certain concentration (30 μL/L, 45 μL/L, or 60 μL/L; ‘test condition’) or aquarium water only (‘control condition’). The temperature in the experimental tank was similar to the temperature in the home tank (median difference: ±0.2° C.). Finally, the shelter tube with the fish was returned to the home tank, where recording continued for 180 min. Throughout the 215 min of pre-treatment, treatment, and post-treatment, the recording of the EOD was interrupted only for a few seconds during which the fish was transferred between its home tank and the experimental tank. The order of the four treatment conditions was determined using a randomized complete block design. Each test or control experiment in a given fish was conducted on a different day.

GABAA current = conditions: rat trigeminal ganglia; cited from earlier work
red garra (Garra rufa) = conditions: G. rufa, cited from earlier work

C=CCc1ccc(O)c(OC)c1 [eugenol]
Fish in which the EOD amplitude collapsed to markedly lower levels ([1]; 60 μL/L eugenol, 5 min): 4 out of 8
Time after end of exposure at which EOD amplitude reached baseline levels ([1]; eugenol, FIG. 19 recording): approximately 6 min
Time after onset of anesthesia at which the fish's movements ceased (jittering of EOD amplitude minimal) ([1]; eugenol, FIG. 19 recording): Approximately 1.5 min
Effect on GABA-induced current (GABAA current): inhibits GABAA current in a reversible, dose-dependent manner
Time to total loss of equilibrium and movement and absence of reaction to external stimuli (red garra (Garra rufa); 25 μL/L eugenol): approximately 3 min
Time to total loss of equilibrium and movement and absence of reaction to external stimuli (red garra (Garra rufa); 50 μL/L eugenol): ~1.5 min
